Experimental data taken from the supplement of paper PMC11208160.

Experiment: recombinant barcode read abundance after kanamycin selection (control-corrected) (log10(CPM+1)); higher = more efficient recombination; sequences stand for … in AGTGCAGAGAAAATCGGCCAGTTTTCTCTGCCTGCAGTCCGCATGCCGT…AGATTTATGCAGCGGACTGCCTTTCTCCCAAAGTGATAAACCGGACAGTATCATGGACCGGTTTTCCCGGTAATCCGTATTTGCAAGGTTGGTTTCACT; site = the 11-nt target
In short: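 Targets were screened in pooled form in E. coli against IS621 bridge RNA target-binding loops. Recombination efficiency is based on barcode counts at recombinant junctions in counts per million, averaged and corrected for the control. Numbers are shown as log10(CPM+1), with duplicate plates on chloramphenicol/ampicillin LB agar (control) or chloramphenicol/ampicillin/kanamycin with 0.1 mM IPTG.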
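Also: IS621 recombinase and bridge RNA in Escherichia coli cells.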

Sequence	recombinant barcode read abundance (log10)
CTCCAGGCTTGGGTTCTAACCTGTTGCGG (site CTCAAGGCTAC)	0.427
CTCCAGGCTTGGGTTCTAACCTGTTGCGG (site CTCCAGGCTCC)	1.55
CTCCGAACTTGGGTTCTAACCTGTTGCTT (site CTCCGAACTAA)	0.144
CTCCGAACTTGGGTTCTAACCTGTTGCTT (site CTCCGTACTAT)	0.0428
CTCCGACCTTGGGTTCTAACCTGTTGCTT (site CTCCGACCTAA)	1.67
CTCCGACCTTGGGTTCTAACCTGTTGCTT (site CTCCGCCCTAA)	0.0228
CTCCGACCTTGGGTTCTAACCTGTTGCTT (site CTCCGGCCTAA)	0.327
CTCCGACCTTGGGTTCTAACCTGTTGCTT (site CTCCGTCCTAA)	0.103
CTCCGAGCTTGGGTTCTAACCTGTTGCTA (site CTCCGAGCTTA)	0.0161
CTCCGAGCTTGGGTTCTAACCTGTTGCTA (site CTCCTAGCTAA)	0.00807
CTCGACACTTGGGTTCTAACCTGTTGCTG (site CTCGACACTCA)	1.6
CTCGACACTTGGGTTCTAACCTGTTGCTG (site CTCTACACTCA)	0.191
CTCGCTACTTGGGTTCTAACCTGTTGCTT (site CTCGATACTAA)	0.0927
CTCGCTACTTGGGTTCTAACCTGTTGCTT (site CTCGCTACTAA)	0.264
CTCGCTCCTTGGGTTCTAACCTGTTGCCA (site CTCGCTCCTTG)	0.275
CTCGCTCCTTGGGTTCTAACCTGTTGCCA (site GAAAAGTCTCA)	0.113
CTCGGAACTTGGGTTCTAACCTGTTGCAT (site CTCGGAACTAT)	1.86
CTCGGAACTTGGGTTCTAACCTGTTGCAT (site CTGGGAACTCT)	0.00945
CTCGGGCCTTGGGTTCTAACCTGTTGCCT (site ATCGGGCCTAG)	0.0932
CTCGGGCCTTGGGTTCTAACCTGTTGCCT (site CTCGGGCCTAG)	0.144
CTCGGGCCTTGGGTTCTAACCTGTTGCCT (site GTCGGGCCTAG)	0.0296
CTCGGGCCTTGGGTTCTAACCTGTTGCCT (site TTCGGGCCTAG)	0.0756

Sequence	recombinant barcode read abundance (log10)
CTCGTTACTTGGGTTCTAACCTGTTGCCT (site CTCGTAACTAG)	0.0393
CTCGTTACTTGGGTTCTAACCTGTTGCCT (site CTCGTCACTAG)	0.112
CTCGTTACTTGGGTTCTAACCTGTTGCCT (site CTCGTGACTAG)	0.0469
CTCGTTACTTGGGTTCTAACCTGTTGCCT (site CTCGTTACTAG)	0.682
CTCGTTGCTTGGGTTCTAACCTGTTGCCT (site ATCGTTGCTAG)	0.0725
CTCGTTGCTTGGGTTCTAACCTGTTGCCT (site CTCGTTGCTAG)	0.519
CTCGTTGCTTGGGTTCTAACCTGTTGCCT (site GTCGTTGCTAG)	0.0989
CTCGTTGCTTGGGTTCTAACCTGTTGCCT (site TTCGTTGCTAG)	0.0838
CTCTAGTCTTGGGTTCTAACCTGTTGCAT (site CTCTAGTCTAA)	0.545
CTCTAGTCTTGGGTTCTAACCTGTTGCAT (site CTCTAGTCTAC)	0.263
CTCTAGTCTTGGGTTCTAACCTGTTGCAT (site CTCTAGTCTAG)	0.109
CTCTAGTCTTGGGTTCTAACCTGTTGCAT (site CTCTAGTCTAT)	1.8
CTCTAGTCTTGGGTTCTAACCTGTTGCGT (site CTCTAGTCTAA)	0.268
CTCTAGTCTTGGGTTCTAACCTGTTGCGT (site CTCTAGTCTAC)	2.54
CTCTAGTCTTGGGTTCTAACCTGTTGCGT (site CTCTAGTCTAG)	0.125
CTCTAGTCTTGGGTTCTAACCTGTTGCGT (site CTCTAGTCTAT)	1.79
CTCTCAGCTTGGGTTCTAACCTGTTGCGA (site CTCTAAACTTC)	0.15
CTCTCAGCTTGGGTTCTAACCTGTTGCGA (site CTCTCAGCTTC)	0.549
CTCTCCACTTGGGTTCTAACCTGTTGCCA (site CTCTCCACTTG)	0.138
CTCTCCACTTGGGTTCTAACCTGTTGCCA (site CTCTCGACTTG)	0.0411
CTCTCCGCTTGGGTTCTAACCTGTTGCCT (site CTCTCCGCTAG)	0.77
CTCTCCGCTTGGGTTCTAACCTGTTGCCT (site CTCTCCTCTAG)	0.0931

Sequence	recombinant barcode read abundance (log10)
CTCTCGACTTGGGTTCTAACCTGTTGCCA (site CTCTCCACTTG)	0.0478
CTCTCGACTTGGGTTCTAACCTGTTGCCA (site CTCTCGACTTG)	0.328
CTCTCGTCTTGGGTTCTAACCTGTTGCAT (site CTCTCGTCTAA)	0.0866
CTCTCGTCTTGGGTTCTAACCTGTTGCAT (site CTCTCGTCTAC)	0.08
CTCTCGTCTTGGGTTCTAACCTGTTGCAT (site CTCTCGTCTAG)	0.0361
CTCTCGTCTTGGGTTCTAACCTGTTGCAT (site CTCTCGTCTAT)	1.45
CTCTCGTCTTGGGTTCTAACCTGTTGCGG (site CTCTCGTCTCC)	1.16
CTCTCGTCTTGGGTTCTAACCTGTTGCGG (site GGACGTGCTAG)	0.127
CTCTGGACTTGGGTTCTAACCTGTTGCTT (site CTCTGGACTAA)	1.13
CTCTGGACTTGGGTTCTAACCTGTTGCTT (site CTCTTGACTAA)	0.0289
CTCTTCGCTTGGGTTCTAACCTGTTGCCT (site CTCTTCACTCG)	0.208
CTCTTCGCTTGGGTTCTAACCTGTTGCCT (site CTCTTCGCTAG)	0.314
CTGAAGCCTTGGGTTCTAACCTGTTGCCT (site ATGAAGCCTAG)	0.0394
CTGAAGCCTTGGGTTCTAACCTGTTGCCT (site CTGAAGCCTAG)	1.74
CTGAAGCCTTGGGTTCTAACCTGTTGCCT (site GTGAAGCCTAG)	0.386
CTGAAGCCTTGGGTTCTAACCTGTTGCCT (site TTGAAGCCTAG)	0.409
CTGACTTCTTGGGTTCTAACCTGTTGCCT (site CAGACTTCTAG)	0.0484
CTGACTTCTTGGGTTCTAACCTGTTGCCT (site CCGACTTCTAG)	0.0377
CTGACTTCTTGGGTTCTAACCTGTTGCCT (site CGGACTTCTAG)	0.079
CTGACTTCTTGGGTTCTAACCTGTTGCCT (site CTGACTTCTAG)	0.121
CTGAGTACTTGGGTTCTAACCTGTTGCCT (site ATCAGTACTAG)	0.0653
CTGAGTACTTGGGTTCTAACCTGTTGCCT (site CTGAGTACTAG)	1.08

Sequence	recombinant barcode read abundance (log10)
CTGAGTCCTTGGGTTCTAACCTGTTGCCA (site CTGAGTCCTTG)	0.424
CTGAGTCCTTGGGTTCTAACCTGTTGCCA (site CTGAGTTCTTG)	0.402
CTGATCCCTTGGGTTCTAACCTGTTGCCT (site CAGATCCCTAG)	0.629
CTGATCCCTTGGGTTCTAACCTGTTGCCT (site CCGATCCCTAG)	0.182
CTGATCCCTTGGGTTCTAACCTGTTGCCT (site CGGATCCCTAG)	0.255
CTGATCCCTTGGGTTCTAACCTGTTGCCT (site CTGATCCCTAG)	1.22
CTGATGACTTGGGTTCTAACCTGTTGCCT (site CTGATAACTAG)	0.177
CTGATGACTTGGGTTCTAACCTGTTGCCT (site CTGATCACTAG)	0.247
CTGATGACTTGGGTTCTAACCTGTTGCCT (site CTGATGACTAG)	0.999
CTGATGACTTGGGTTCTAACCTGTTGCCT (site CTGATTACTAG)	0.0174
CTGATGTCTTGGGTTCTAACCTGTTGCCA (site CTGATGTCTTG)	0.456
CTGATGTCTTGGGTTCTAACCTGTTGCCA (site CTGCTGTCTTG)	0.126
CTGATGTCTTGGGTTCTAACCTGTTGCCA (site CTGGTGTCTTG)	0.388
CTGATGTCTTGGGTTCTAACCTGTTGCCA (site CTGTTGTCTTG)	0.136
CTGCACCCTTGGGTTCTAACCTGTTGCTA (site CTGCACCCTTA)	1.61
CTGCACCCTTGGGTTCTAACCTGTTGCTA (site GGCGGAGCTCG)	0.378
CTGCACTCTTGGGTTCTAACCTGTTGCCA (site CTGCACTCTTG)	0.842
CTGCACTCTTGGGTTCTAACCTGTTGCCA (site CTGTACTCTAG)	0.28
CTGCAGACTTGGGTTCTAACCTGTTGCCG (site CTCCAGACTCT)	0.37
CTGCAGACTTGGGTTCTAACCTGTTGCCG (site CTGCAGACTCG)	0.41
